The test deals with T1, RORγ-LBD (Homo sapiens, UniProt P51449).
T1 construct: made in house; host or cells: SF9 cells (baculovirus)
T1 sequence (P51449 269-508 limits assumed): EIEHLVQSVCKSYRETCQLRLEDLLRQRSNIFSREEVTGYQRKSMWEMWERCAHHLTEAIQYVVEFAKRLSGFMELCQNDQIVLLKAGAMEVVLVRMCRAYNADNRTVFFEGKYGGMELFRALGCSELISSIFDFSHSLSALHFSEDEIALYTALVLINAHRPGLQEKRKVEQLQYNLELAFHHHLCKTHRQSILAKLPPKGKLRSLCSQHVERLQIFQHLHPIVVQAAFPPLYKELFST
Nature of the test: RORγ-Ligand Binding Domain (LBD) TR-FRET Assay.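 As to TR-FRET Assay Max Response: 665/615 nm ratio relative to signal without ursolic acid or compound set at 100.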 In kind it is biochemical. The essentials: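 His-tagged RORγ-LBD from SF9 baculovirus lysate, ~3 nM final, in 50 mM Tris pH 7.0, 50 mM KCl, 1 mM EDTA, 0.1 mM DTT, 0.01% BSA. Biotinylated SRC1 LXXLL peptide at 200 nM final with 2 μM ursolic acid; TR-FRET read-out, 1% DMSO final.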

As for `O=C1CC[C@@](C[C@H]2CN(S(=O)(=O)c3cccc(C(F)(F)F)c3)c3cc(-c4cc(F)cc(OC(F)F)c4)ccc3O2)(C(=O)O)N1` [Compound 77C, (R)-2-(((S)-6-(3-(difluoro-methoxy)-5-fluorophenyl)-4-((3-(trifluoromethyl)phenyl)sulfonyl)-3,4-dihydro-2H-benzo[b][1,4]-oxazin-2-yl)methyl)-5-oxopyrrolidine-2-carboxylic acid], the EC50 is less than 500 nM and the “TR-FRET Assay Max Response” value is reported as “** (The symbol “**” indicates a value in the range of greater than 90 to 150)”.
Take `O=C1CC[C@](C[C@H]2CN(S(=O)(=O)c3cccc(C(F)(F)F)c3)c3cc(-c4cc(F)cc(OC(F)F)c4)ccc3O2)(C(=O)O)N1` [Compound 77D, (S)-2-(((S)-6-(3-(difluoro-methoxy)-5-fluorophenyl)-4-((3-(trifluoromethyl)phenyl)sulfonyl)-3,4-dihydro-2H-benzo[b][1,4]-oxazin-2-yl)methyl)-5-oxopyrrolidine-2-carboxylic acid]: the EC50 is less than 500 nM and the “TR-FRET Assay Max Response” value is given as “** (The symbol “**” indicates a value in the range of greater than 90 to 150)”.
The corresponding values for `CC(=O)NC1(C[C@H]2CN(S(=O)(=O)c3cccc(C(F)(F)F)c3)c3cc(-c4cc(F)cc(OC(F)F)c4)ccc3O2)CCOCC1` [Compound 78I, (S)-N-(4-((6-(3-(difluoro-methoxy)-5-fluorophenyl)-4-((3-(trifluoromethyl)phenyl)sulfonyl)-3,4-dihydro-2H-benzo[b][1,4]-oxazin-2-yl)methyl)tetrahydro-2H-pyran-4-yl)acetamide] are less than 500 nM and “*** (The symbol “***” indicates a value in the range of greater than 150 to 200)”.
On the same counts, the results for `CC(=O)NC1(C[C@H]2CN(S(=O)(=O)c3cccc(C(F)(F)F)c3)c3cc(-c4cc(F)ccc4F)ccc3O2)CCOCC1` [Compound 78J, (S)-N-(4-((6-(2,5-difluorophenyl)-4-((3-(trifluoromethyl)phenyl)-sulfonyl)-3,4-dihydro-2H-benzo[b][1,4]oxazin-2-yl)methyl)tetrahydro-2H-pyran-4 yl)acetamide] are less than 500 nM and “*** (The symbol “***” indicates a value in the range of greater than 150 to 200)”.
As for `C[C@@H](CC(=O)O)[C@H]1CN(S(=O)(=O)c2cccc(C(F)(F)F)c2)c2cc(-c3cc(F)cc(OC(F)F)c3)ccc2O1` [Compound 80A, (S)-3-((S)-6-(3-(difluoro-methoxy)-5-fluorophenyl)-4-((3-(trifluoromethyl)phenyl)sulfonyl)-3,4-dihydro-2H-benzo[b][1,4]-oxazin-2-yl)butanoic acid], the EC50 was less than 500 nM and the “TR-FRET Assay Max Response” value was “*** (The symbol “***” indicates a value in the range of greater than 150 to 200)”.

The record behind these values is patent publication US10611740B2, “Aryl dihydro-2H-benzo[b][1,4]oxazine sulfonamide and related compounds for use as agonists of RORγ and the treatment of disease” (Lycera Corporation, priority 2015, dated 2020).
